In EP4692061A1, “LOW-MOLECULAR-WEIGHT COMPOUND HAVING CEREBLON-BINDING ACTIVITY, AND USE THEREOF” (Aevis Bio, Inc., priority 2023, dated 2024):
pIC50: −log10 of the molar value.

What was measured:
RD = assay: Tumor cell viability, CCK-8 assay, RD; type: cell-based; conditions: RD (human rhabdomyosarcoma); compound treatment 1uM; 3 days
Experimental: (§1) To examine whether the compounds having CRBN-binding activity according to the present invention exert tumor cell apoptosis effects, the assay was conducted using various human cancer cell lines, including human multiple myeloma cell lines (MM.1S and MM.1R-LR), a human breast cancer cell line (MDA-MB-231), a human lung cancer cell line (A549), a human rhabdomyosarcoma cell line (RD), and a human lymphoma cell line (Jeko-1).
(§2) The MM.1S, MM.1R-LR, MDA-MB-231, A549, RD, and Jeko-1 cell lines were obtained from the American Type Culture Collection (ATCC, Manassas, VA, USA) and cultured in RPMI 1640 medium (Corning, MD, USA) or DMEM (Corning, MD, USA) supplemented with 10% fetal bovine serum (FBS) (Corning, MD, USA), 100 U/mL penicillin (Corning, MD, USA), and 100 µg/mL streptomycin (Corning, MD, USA) at 37°C in a 5% CO2 incubator for 24 hours. The cells were seeded at a density of 1 × 10^4 cells/well in 96-well plates and incubated for 24 hours. After incubation, the test compounds dissolved in dimethyl sulfoxide (DMSO, CAS No.: 67-68-5) were serially diluted to a final concentration of 10 µM and applied to the cells. Following an additional incubation for 2 to 5 days, the analysis was performed using a CCK-8 assay kit (Dojindo, Japan) according to the manufacturer's instructions.

cereblon (CRBN) = cereblon (CRBN) (Homo sapiens, UniProt Q96SW2); assay: In vitro CRBN binding assay (AlphaScreen, competitive inhibition of the PROTAC assay); conditions: Table 1; AlphaScreen, PROTAC Optimization Kit for BET Bromodomain-Cereblon Binding; read-out: Alpha IC50
Jeko-1 = assay: Tumor cell viability, CCK-8 assay, Jeko-1; type: cell-based; conditions: Jeko-1 (human lymphoma); compound treatment 1uM; 3 days
Experimental: as §1, §2

MDA-MB-231 = assay: Tumor cell viability, CCK-8 assay, MDA-MB-231; type: cell-based; conditions: MDA-MB-231 (human breast cancer); compound treatment 1uM; 2 days
Experimental: as §1, §2

A549 = assay: Tumor cell viability, CCK-8 assay, A549; type: cell-based; conditions: A549 (human lung cancer); compound treatment 1uM; 2 days
Experimental: as §1, §2

MM.1R-LR = assay: Tumor cell viability, CCK-8 assay, MM.1R-LR; type: cell-based; conditions: MM.1R-LR (drug-resistant human multiple myeloma); compound treatment 1uM; 5 days
Experimental: as §1, §2

MM.1S = assay: Tumor cell viability, CCK-8 assay, MM.1S; type: cell-based; conditions: MM.1S (human multiple myeloma); compound treatment 1uM; 5 days
Experimental: as §1, §2

Row | Compound | Cell viability (% of control) (RD) | pIC50 (cereblon (CRBN)) | Cell viability (% of control) (Jeko-1) | Cell viability (% of control) (MDA-MB-231) | Cell viability (% of control) (A549) | Cell viability (% of control) (MM.1R-LR) | Cell viability (% of control) (MM.1S)
1 | O=C1CCC(c2cccc(NS(=O)(=O)c3cccc(NC(=O)c4ccc(CCCCCl)cc4)c3)c2)C(=O)N1 (centres unmarked) [AEV41005, 4-(4-chlorobutyl)-N-(3-(N-(3-(2,6-dioxopiperidin-3-yl)phenyl)sulfamoyl)phenyl)benzamide] | 28.7 % of control | 5.92 | 4.1 % of control | 42.2 % of control | 36.8 % of control | 58.2 % of control | 10.7 % of control
2 | CCCCCCCCc1ccc(C(=O)Nc2cccc(S(=O)(=O)Nc3cccc(C4CCC(=O)NC4=O)c3)c2)cc1 (centres unmarked) [AEV40264, N-(3-(N-(3-(2,6-dioxopiperidin-3-yl)phenyl)sulfamoyl)phenyl)-4-octylbenzamide] | 67.9 % of control | 6.49 | 5.8 % of control | 46.3 % of control | 61.8 % of control | 79.8 % of control | 13.3 % of control
3 | CCCCCCc1ccc(C(=O)Nc2cccc(S(=O)(=O)Nc3cccc(C4CCC(=O)NC4=O)c3)c2)cc1 (centres unmarked) [AEV41083, N-(3-(N-(3-(2,6-dioxopiperidin-3-yl)phenyl)sulfamoyl)phenyl)-4-hexylbenzamide] | 31.4 % of control | 6.04 | 9.7 % of control | 35.5 % of control | 29.5 % of control | 54.7 % of control | 17.8 % of control
4 | O=C1CCC(c2cccc(NS(=O)(=O)c3cccc(NC(=O)c4ccc(CCCCCCl)cc4)c3)c2)C(=O)N1 (centres unmarked) [AEV41047, 4-(5-chloropentyl)-N-(3-(N-(3-(2,6-dioxopiperidin-3-yl)phenyl)sulfamoyl)phenyl)benzamide] | 20.5 % of control | 5.73 | 15.7 % of control | 28.2 % of control | 32.2 % of control | 56.9 % of control | 14.9 % of control
5 | O=C1CCC(c2cccc(NS(=O)(=O)c3cccc(NC(=O)c4ccc(CCCCCCCl)cc4)c3)c2)C(=O)N1 (centres unmarked) [AEV41048, 4-(6-chlorohexyl)-N-(3-(N-(3-(2,6-dioxopiperidin-3-yl)phenyl)sulfamoyl)phenyl)benzamide] | 54.0 % of control | 5.59 | 13.0 % of control | 45.6 % of control | 47.0 % of control | 51.5 % of control | 10.8 % of control
